Target: T1, recombinant IL-8 Rβ, or Type II, receptor (Homo sapiens, UniProt P25025)
T1 sequence (P25025 1-360): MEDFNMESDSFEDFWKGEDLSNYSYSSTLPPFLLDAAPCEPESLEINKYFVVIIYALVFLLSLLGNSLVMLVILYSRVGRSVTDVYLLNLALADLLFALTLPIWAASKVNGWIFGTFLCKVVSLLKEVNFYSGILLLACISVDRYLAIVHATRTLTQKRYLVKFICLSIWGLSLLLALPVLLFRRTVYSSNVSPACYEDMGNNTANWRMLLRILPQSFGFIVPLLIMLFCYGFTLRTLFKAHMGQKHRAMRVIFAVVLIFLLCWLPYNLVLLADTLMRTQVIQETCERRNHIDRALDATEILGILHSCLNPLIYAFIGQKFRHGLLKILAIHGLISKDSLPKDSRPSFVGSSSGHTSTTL
Assay: Receptor binding assay, 125I IL-8, IL-8Rβ CHO membranes (permissive model)
Text: [^125 I] IL-8 (human recombinant) was obtained from Amersham Corp., Arlington Heights, Ill., with specific activity 2000 Ci/mmol. Gro-α was obtained from NEN-New England Nuclear. All other chemicals were of analytical grade. High levels of recombinant human IL-8 type α and β receptors were individually expressed in Chinese hamster ovary cells as described previously (Holmes, et al., Science, 1991, 253, 1278). The Chinese hamster ovary membranes were homogenized according to a previously described protocol (Haour, et al., J Biol Chem., 249 pp 2195-2205 (1974)). Except that the homogenization buffer was changed to 10 mM Tris-HCL, 1 mM MgS04, 0.5 mM EDTA (ethylene-diaminetetra-acetic acid), 1 mMPMSF (α-toluenesulphonyl fluoride), 0.5 mg/L Leupeptin, pH 7.5. Membrane protein concentration was determined using Pierce Co. micro-assay kit using bovine serum albumin as a standard. All assays were performed in a 96-well micro plate format. Each reaction mixture contained ^125 I IL-8 (0.25 nM) or ^125 I Gro-α and 0.5 μg/mL of IL-8Rα or 1.0 μg/mL or IL-8Rβ membranes in 20 mM Bis-Trispropane and 0.4 mM Tris HCl buffers, pH 8.0, containing 1.2 mM MgSO4, 0.1 mM EDTA, 25 mM NaCl and 0.03% CHAPS. […] The filter was then dried and counted on the Betaplate liquid scintillation counter. […]

SMILES: Cc1cc(Cl)ccc1NC(=O)Nc1ccccc1C(=O)O [1-(2-Carboxyphenyl)-3-(4-chloro-2-methylphenyl)urea]
- found to be active at (IL-8 receptor inhibition): about 75 μg/mL

From US6005008A, “IL-8 receptor antagonists” (SmithKline Beecham Corporation, priority 1997, dated 1999)
